# Results from ChEMBL document CHEMBL6092142, “Discovery and preclinical profile of YK-2168, a differentiated selective CDK9 inhibitor in clinical development” (Bioorg Med Chem Lett, 2024).
# Activity calls are given as the source filed them. No cut-off for these calls is given here.
# Experiments:
# [1] = target: Cyclin-dependent kinase 1 (Homo sapiens, UniProt P06493); assay: Inhibition of CDK1 (unknown origin)
# [2] = target: Cyclin-dependent kinase 2 (Homo sapiens, UniProt P24941); assay: Inhibition of CDK2 (unknown origin)
# [3] = target: Cyclin-dependent kinase 9 (Homo sapiens, UniProt P50750); assay: Inhibition of CDK9 (unknown origin)
# Sequence of Cyclin-dependent kinase 9 (P50750 whole entry): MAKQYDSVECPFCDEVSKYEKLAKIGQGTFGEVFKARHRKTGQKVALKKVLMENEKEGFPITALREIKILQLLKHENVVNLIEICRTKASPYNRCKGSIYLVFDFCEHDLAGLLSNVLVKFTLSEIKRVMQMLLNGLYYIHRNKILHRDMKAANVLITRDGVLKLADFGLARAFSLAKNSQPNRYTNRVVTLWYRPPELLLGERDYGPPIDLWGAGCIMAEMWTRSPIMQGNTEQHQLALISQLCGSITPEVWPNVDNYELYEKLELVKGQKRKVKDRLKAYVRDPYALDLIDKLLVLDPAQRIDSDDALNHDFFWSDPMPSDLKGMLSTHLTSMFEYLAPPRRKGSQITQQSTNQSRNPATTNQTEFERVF
# [4] = Selectivity index, ratio of IC50 for inhibition of CDK1 (unknown origin) to IC50 for inhibition of CDK9 (unknown origin)
# [5] = Selectivity index, ratio of IC50 for inhibition of CDK2 (unknown origin) to IC50 for inhibition of CDK9 (unknown origin)
# [6] = tested on: MV4-11; assay: Antiproliferative activity against human MV4-11 cells assessed as cell viability; assay type: functional, cell-based
# [7] = Aqueous solubility of compound at pH 4; assay type: physicochemical
# [8] = Volume of distribution in CD-1 mouse at 2 mg/kg, iv; assay type: ADME, organism-based; settings: in vivo
# [9] = Clearance in CD-1 mouse at 2 mg/kg, iv; assay type: ADME, organism-based; settings: in vivo
# [10] = Half life in CD-1 mouse at 2 mg/kg, iv; assay type: ADME, organism-based; settings: in vivo
# [11] = AUC (0 to 24 hrs) in CD-1 mouse at 2 mg/kg, iv; assay type: ADME, organism-based; settings: in vivo
# [12] = tested on: MV4-11; assay: Antitumor activity against human MV4-11 cells xenografted in mouse assessed as tumor growth inhibition at 10 mg/kg, iv measured upto 28 days; assay type: functional; settings: MV4-11, 672 h, time <= 28 day, read-out: TGI
# [13] = Toxicity in mouse assessed as change in body weight at 10 mg/kg, iv measured upto 28 days; assay type: organism-based; settings: in vivo, 672 h, time < 28 day
# [14] = tested on: MV4-11; assay: Antitumor activity against human MV4-11 cells xenografted in iv dosed mouse assessed as reduction in pol II CTD level in tumor measured upto 24 hrs by Western blot analysis; assay type: functional, organism-based; settings: dose 5-15 mg/kg
# [15] = tested on: MV4-11; assay: Antitumor activity against human MV4-11 cells xenografted in mouse assessed as reduction in MYC level in tumor at 5 to 15 mg/kg, iv measured upto 24 hrs by Western blot analysis; assay type: functional, organism-based; settings: dose 5-15 mg/kg
# [16] = tested on: MV4-11; assay: Antitumor activity against human MV4-11 cells xenografted in mouse assessed as reduction in Mcl1 level in tumor at 5 to 15 mg/kg, iv measured upto 24 hrs by Western blot analysis; assay type: functional, organism-based; settings: dose 5-15 mg/kg
# [17] = tested on: MV4-11; assay: Antitumor activity against human MV4-11 cells xenografted in mouse assessed as upregulation of caspase-3 level in tumor at 5 to 15 mg/kg, iv by Western blot analysis; assay type: functional, organism-based; settings: dose 5-15 mg/kg, time <= 24.0 hrs
# [18] = Plasma protein binding in human; assay type: ADME, cell-free; settings: read-out: PPB (converted)
# [19] = Permeability across apical to basolateral side in human Caco-2 cells; assay type: ADME, cell-based; settings: read-out: permeability
# [20] = Permeability across basolateral to apical side in human Caco-2 cells; assay type: ADME, cell-based; settings: read-out: permeability
# [21] = Efflux ratio of permeability basolateral to apical side over apical to basolateral side in human Caco-2 cells; assay type: ADME, cell-based
# [22] = Metabolic stability in human hepatocytes assessed as half life; assay type: ADME, cell-based, Hepatocyte
# [23] = Metabolic stability in monkey hepatocytes assessed as half life; assay type: ADME, cell-based, Macaca mulatta, Hepatocyte; settings: rhesus monkey
# [24] = Metabolic stability in dog hepatocytes assessed as half life; assay type: ADME, cell-based, Canis lupus familiaris, Hepatocyte
# [25] = Metabolic stability in rat hepatocytes assessed as half life; assay type: ADME, cell-based, Hepatocyte
# [26] = Metabolic stability in mouse hepatocytes assessed as half life; assay type: ADME, cell-based, Hepatocyte
# [27] = target: T1, Cytochrome P450 3A4 (Homo sapiens, UniProt P08684); assay: Inhibition of CYP3A4 (unknown origin); assay type: ADME
# T1 sequence (P08684 whole entry): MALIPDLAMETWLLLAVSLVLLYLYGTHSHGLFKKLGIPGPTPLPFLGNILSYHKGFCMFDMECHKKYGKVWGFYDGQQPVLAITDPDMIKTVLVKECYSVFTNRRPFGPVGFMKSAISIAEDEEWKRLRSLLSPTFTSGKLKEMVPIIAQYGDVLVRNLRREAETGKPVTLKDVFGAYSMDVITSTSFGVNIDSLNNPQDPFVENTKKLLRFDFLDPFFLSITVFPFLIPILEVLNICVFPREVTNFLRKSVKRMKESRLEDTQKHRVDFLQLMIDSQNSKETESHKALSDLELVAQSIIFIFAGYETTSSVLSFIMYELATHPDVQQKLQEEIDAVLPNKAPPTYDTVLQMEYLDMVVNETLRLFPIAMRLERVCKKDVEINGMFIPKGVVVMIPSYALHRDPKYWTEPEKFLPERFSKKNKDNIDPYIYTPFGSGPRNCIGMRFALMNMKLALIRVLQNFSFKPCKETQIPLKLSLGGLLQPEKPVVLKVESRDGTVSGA
# [28] = target: T2, Cytochrome P450 2D6 (Homo sapiens, UniProt P10635); assay: Inhibition of CYP2D6 (unknown origin); assay type: ADME
# T2 sequence (P10635 whole entry): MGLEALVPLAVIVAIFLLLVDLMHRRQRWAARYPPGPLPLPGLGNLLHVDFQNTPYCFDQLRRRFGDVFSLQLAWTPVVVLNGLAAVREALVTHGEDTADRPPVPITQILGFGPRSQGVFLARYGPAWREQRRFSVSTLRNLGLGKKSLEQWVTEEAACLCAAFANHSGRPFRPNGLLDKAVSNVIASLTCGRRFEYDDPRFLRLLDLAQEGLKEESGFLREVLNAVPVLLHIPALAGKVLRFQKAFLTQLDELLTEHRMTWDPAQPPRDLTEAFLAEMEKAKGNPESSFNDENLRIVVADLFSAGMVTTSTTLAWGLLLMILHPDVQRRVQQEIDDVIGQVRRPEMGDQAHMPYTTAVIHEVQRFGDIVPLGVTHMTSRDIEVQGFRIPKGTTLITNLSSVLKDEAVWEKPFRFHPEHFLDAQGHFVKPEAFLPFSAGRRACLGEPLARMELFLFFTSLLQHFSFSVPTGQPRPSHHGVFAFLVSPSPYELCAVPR
# [29] = target: T3, Cytochrome P450 2C19 (Homo sapiens, UniProt P33261); assay: Inhibition of CYP2C19 (unknown origin); assay type: ADME
# T3 sequence (P33261 whole entry): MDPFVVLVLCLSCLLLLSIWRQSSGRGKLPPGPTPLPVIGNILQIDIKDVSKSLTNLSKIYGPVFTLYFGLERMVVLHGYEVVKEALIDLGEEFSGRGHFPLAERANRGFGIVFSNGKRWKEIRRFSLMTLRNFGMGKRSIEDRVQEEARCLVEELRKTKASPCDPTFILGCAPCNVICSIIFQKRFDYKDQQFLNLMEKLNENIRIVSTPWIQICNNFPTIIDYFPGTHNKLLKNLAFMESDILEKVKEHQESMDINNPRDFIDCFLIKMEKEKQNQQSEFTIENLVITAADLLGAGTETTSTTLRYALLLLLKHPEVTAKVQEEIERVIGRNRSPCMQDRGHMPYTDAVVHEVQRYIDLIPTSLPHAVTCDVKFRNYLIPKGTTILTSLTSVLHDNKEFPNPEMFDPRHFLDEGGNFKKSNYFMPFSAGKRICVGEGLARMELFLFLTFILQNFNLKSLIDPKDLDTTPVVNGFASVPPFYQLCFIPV
# [30] = target: T4, Cytochrome P450 2C9 (Homo sapiens, UniProt P11712); assay: Inhibition of CYP2C9 (unknown origin); assay type: ADME
# T4 sequence (P11712 whole entry): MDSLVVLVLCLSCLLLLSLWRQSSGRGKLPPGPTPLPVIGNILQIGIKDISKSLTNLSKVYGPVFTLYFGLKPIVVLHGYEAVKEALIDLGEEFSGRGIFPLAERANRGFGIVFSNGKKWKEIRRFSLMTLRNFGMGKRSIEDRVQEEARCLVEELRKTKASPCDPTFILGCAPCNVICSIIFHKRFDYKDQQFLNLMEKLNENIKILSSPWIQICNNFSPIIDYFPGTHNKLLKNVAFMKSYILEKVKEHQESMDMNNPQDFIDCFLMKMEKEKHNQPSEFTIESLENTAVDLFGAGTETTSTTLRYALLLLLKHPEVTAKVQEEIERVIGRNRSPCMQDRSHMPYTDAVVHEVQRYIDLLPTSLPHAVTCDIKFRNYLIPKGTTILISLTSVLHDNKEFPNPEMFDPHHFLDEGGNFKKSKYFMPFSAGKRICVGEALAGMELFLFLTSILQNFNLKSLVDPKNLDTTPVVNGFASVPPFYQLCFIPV
# [31] = target: T5, Cytochrome P450 2C8 (Homo sapiens, UniProt P10632); assay: Inhibition of CYP2C8 (unknown origin); assay type: ADME
# T5 sequence (P10632 whole entry): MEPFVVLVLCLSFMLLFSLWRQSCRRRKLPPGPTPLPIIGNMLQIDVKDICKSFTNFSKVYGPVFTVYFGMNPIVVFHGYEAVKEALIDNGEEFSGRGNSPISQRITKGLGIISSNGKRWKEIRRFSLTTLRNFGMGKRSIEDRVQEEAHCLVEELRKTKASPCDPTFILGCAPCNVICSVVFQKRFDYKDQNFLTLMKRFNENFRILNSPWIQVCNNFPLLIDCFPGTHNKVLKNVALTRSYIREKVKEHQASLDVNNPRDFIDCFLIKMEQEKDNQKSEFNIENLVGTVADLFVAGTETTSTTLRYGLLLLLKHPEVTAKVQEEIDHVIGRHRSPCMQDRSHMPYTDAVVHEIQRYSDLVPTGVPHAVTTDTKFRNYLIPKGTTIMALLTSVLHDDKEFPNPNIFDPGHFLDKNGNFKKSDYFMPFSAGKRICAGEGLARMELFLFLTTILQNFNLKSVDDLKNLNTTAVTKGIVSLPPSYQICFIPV
# [32] = target: T6, Cytochrome P450 2B6 (Homo sapiens, UniProt P20813); assay: Inhibition of CYP2B6 (unknown origin); assay type: ADME
# T6 sequence (P20813 whole entry): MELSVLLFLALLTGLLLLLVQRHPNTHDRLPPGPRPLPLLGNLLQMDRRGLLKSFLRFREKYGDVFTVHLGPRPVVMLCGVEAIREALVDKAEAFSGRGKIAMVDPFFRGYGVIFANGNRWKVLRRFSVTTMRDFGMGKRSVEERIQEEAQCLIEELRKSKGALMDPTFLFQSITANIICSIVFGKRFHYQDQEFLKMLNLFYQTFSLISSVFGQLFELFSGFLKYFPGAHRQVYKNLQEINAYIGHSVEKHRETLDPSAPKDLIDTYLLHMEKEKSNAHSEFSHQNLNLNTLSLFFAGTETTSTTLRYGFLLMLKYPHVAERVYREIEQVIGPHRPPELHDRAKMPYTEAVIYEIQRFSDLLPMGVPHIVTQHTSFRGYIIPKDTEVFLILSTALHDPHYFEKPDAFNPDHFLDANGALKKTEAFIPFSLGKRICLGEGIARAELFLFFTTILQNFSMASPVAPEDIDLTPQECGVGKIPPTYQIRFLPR
# [33] = target: T7, Cytochrome P450 1A2 (Homo sapiens, UniProt P05177); assay: Inhibition of CYP1A2 (unknown origin); assay type: ADME
# T7 sequence (P05177 whole entry): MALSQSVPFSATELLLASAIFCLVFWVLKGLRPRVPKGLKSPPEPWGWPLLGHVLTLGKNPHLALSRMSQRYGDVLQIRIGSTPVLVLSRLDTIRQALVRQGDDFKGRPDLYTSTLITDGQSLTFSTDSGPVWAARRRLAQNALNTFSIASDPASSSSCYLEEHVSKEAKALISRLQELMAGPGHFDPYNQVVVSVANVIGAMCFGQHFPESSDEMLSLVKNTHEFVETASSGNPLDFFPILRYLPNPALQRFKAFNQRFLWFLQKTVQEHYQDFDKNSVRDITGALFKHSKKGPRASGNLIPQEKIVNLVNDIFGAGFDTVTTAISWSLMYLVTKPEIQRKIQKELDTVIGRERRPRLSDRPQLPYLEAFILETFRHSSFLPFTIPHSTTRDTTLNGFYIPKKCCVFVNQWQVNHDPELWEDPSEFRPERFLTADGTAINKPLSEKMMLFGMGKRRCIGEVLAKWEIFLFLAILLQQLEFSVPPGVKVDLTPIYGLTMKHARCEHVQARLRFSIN
# [34] = target: T1, Cytochrome P450 3A4; assay: Time dependent inhibition of CYP3A4 (unknown origin); assay type: ADME
# [35] = target: T4, Cytochrome P450 2C9; assay: Time dependent inhibition of CYP2C9 (unknown origin); assay type: ADME
# [36] = target: T3, Cytochrome P450 2C19; assay: Time dependent inhibition of CYP2C19 (unknown origin); assay type: ADME
# [37] = target: T2, Cytochrome P450 2D6; assay: Time dependent inhibition of CYP2D6 (unknown origin); assay type: ADME
# [38] = target: T5, Cytochrome P450 2C8; assay: Time dependent inhibition of CYP2C8 (unknown origin); assay type: ADME
# [39] = target: T7, Cytochrome P450 1A2; assay: Time dependent inhibition of CYP1A2 (unknown origin); assay type: ADME
# [40] = target: T1, Cytochrome P450 3A4; assay: Induction of CYP3A4 (unknown origin); assay type: ADME
# [41] = tested on: SNU-16; assay: Antitumor activity against human SNU-16 cells xenografted in iv dosed mouse assessed as tumor growth inhibition; assay type: functional, organism-based; settings: dose 5-15 mg/kg
# [42] = Volume of distribution in Sprague-Dawley rat at 4 mg/kg, iv; assay type: ADME, organism-based; settings: in vivo
# [43] = Volume of distribution in Beagle dog at 1 mg/kg, iv; assay type: ADME, organism-based, Canis lupus familiaris; settings: in vivo
# [44] = Clearance in Sprague-Dawley rat at 4 mg/kg, iv; assay type: ADME, organism-based; settings: in vivo
# [45] = Clearance in Beagle dog at 1 mg/kg, iv; assay type: ADME, organism-based, Canis lupus familiaris; settings: in vivo
# [46] = Half life in Sprague-Dawley rat at 4 mg/kg, iv; assay type: ADME, organism-based; settings: in vivo
# [47] = Half life in Beagle dog at 1 mg/kg, iv; assay type: ADME, organism-based, Canis lupus familiaris; settings: in vivo
# [48] = AUC (0 to 24 hrs) in Sprague-Dawley rat at 4 mg/kg, iv; assay type: ADME, organism-based; settings: in vivo
# [49] = AUC (0 to 24 hrs) in Beagle dog at 1 mg/kg, iv; assay type: ADME, organism-based, Canis lupus familiaris; settings: in vivo
# [50] = target: Voltage-gated inwardly rectifying potassium channel KCNH2 (Homo sapiens, UniProt Q12809); assay: Inhibition of hERG upto 30 uM; assay type: toxicity
# Sequence of Voltage-gated inwardly rectifying potassium channel KCNH2 (Q12809 whole entry): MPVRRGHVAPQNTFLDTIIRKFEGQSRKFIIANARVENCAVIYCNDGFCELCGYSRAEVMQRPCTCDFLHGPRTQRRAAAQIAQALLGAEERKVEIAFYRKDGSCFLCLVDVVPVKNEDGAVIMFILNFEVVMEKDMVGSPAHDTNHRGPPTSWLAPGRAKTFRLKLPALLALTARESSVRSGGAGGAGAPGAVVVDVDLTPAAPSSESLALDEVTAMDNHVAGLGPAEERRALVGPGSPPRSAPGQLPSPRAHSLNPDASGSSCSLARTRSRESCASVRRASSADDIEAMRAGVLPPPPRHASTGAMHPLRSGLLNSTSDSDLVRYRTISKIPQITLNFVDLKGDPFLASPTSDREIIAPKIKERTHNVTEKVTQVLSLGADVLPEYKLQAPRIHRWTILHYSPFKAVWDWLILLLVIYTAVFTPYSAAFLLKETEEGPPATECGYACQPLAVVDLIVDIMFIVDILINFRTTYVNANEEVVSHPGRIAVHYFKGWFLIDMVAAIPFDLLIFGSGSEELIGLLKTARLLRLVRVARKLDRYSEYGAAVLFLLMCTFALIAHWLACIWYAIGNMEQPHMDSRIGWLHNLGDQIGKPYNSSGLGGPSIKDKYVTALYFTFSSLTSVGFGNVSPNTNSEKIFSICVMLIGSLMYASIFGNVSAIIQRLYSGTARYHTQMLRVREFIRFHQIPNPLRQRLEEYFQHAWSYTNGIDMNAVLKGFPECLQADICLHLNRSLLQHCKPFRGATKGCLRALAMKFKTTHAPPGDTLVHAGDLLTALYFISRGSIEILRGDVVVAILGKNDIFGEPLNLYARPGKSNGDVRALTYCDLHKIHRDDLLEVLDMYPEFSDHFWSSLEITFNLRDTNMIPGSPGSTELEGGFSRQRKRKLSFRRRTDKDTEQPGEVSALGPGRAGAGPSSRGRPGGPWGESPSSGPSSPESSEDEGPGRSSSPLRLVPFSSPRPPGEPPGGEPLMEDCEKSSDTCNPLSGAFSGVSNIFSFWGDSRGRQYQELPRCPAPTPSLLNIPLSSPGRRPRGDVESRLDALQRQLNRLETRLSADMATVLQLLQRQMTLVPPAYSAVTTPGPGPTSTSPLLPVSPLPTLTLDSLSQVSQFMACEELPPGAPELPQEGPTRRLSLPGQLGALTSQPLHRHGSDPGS
# Sequence of Cyclin-dependent kinase 1 (P06493 whole entry): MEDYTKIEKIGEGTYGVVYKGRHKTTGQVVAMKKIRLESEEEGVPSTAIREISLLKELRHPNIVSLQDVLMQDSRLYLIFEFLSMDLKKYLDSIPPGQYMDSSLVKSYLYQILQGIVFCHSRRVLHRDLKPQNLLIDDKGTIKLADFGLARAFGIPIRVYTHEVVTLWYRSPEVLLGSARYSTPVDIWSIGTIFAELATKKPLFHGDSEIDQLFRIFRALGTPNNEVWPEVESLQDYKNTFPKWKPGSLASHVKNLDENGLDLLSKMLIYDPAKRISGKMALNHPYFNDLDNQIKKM
structure (smiles),measurement,setting,value
Cn1cc(-c2c(Cl)cnc3[nH]c(C4CCNCC4)cc23)cn1,IC50,[1],428 nM
same,IC50,[2],267 nM
same,IC50,[3],5.9 nM
same,Ratio IC50,[4],72.5
same,Ratio IC50,[5],45.2
same,IC50,[6],53.4 nM
same,solubility,[7],1500 µg/mL
same,Vd,"[8]; CD-1, mouse, read-out: Vd",10.2 L/kg
same,clearance,[9],115 mL/min/kg
same,half-life,"[10]; CD-1, mouse",88.2 min
same,AUC(0-t),"[11]; CD-1, mouse",0.916 µM·h
same,inhibition in vivo at 10 mg/kg,[12],80%
same,Activity,[13],Non-toxic
same,Activity,[14],Dose-dependent-effect
same,Activity,[15],Active
same,Activity,[16],Active
same,Activity,[17],Time-dependent-effect
same,fraction unbound,[18],0.711
same,Papp A→B,[19],0.82 ×10⁻⁶ cm/s
same,Papp B→A,[20],13.9 ×10⁻⁶ cm/s
same,efflux ratio,[21],17
same,half-life,[22],> 280 min
same,half-life,[23],264 min
same,half-life,[24],> 280 min
same,half-life,[25],222 min
same,half-life,[26],81.1 min
same,IC50,[27],> 100 µM
same,IC50,[28],> 100 µM
same,IC50,[29],96.2 µM
same,IC50,[30],> 100 µM
same,IC50,[31],> 100 µM
same,IC50,[32],> 100 µM
same,IC50,[33],44.7 µM
same,TDI,[34],Not_active
same,TDI,[35],Not_active
same,TDI,[36],Not_active
same,TDI,[37],Not_active
same,TDI,[38],Not_active
same,TDI,[39],Not_active
same,Activity,[40],Not_active
same,TGI,[41],"Dose-dependent-effect; Partial Response Is Observed In 2/8 Mouse At 5 Mg/Kg Group, Partial Response Observed In 6/8 Mouse At 10 Mg/Kg And Partial Response Is Observed In 7/8 Mouse At 15 Mg/Kg Dose Group."
same,Vd,[42],11.2 L/kg
same,Vd,[43],7.62 L/kg
same,clearance,[44],52 mL/min/kg
same,clearance,[45],29.1 mL/min/kg
same,half-life,[46],192 min
same,half-life,[47],238 min
same,AUC(0-t),[48],1250 ng·h/mL
same,AUC(0-t),[49],568 ng·h/mL
same,inhibition (INH),[50],Not_active
CC(C)N1CCC(c2cc3c(-c4cnn(CC5CC5)c4)c(Cl)cnc3[nH]2)CC1,Ratio IC50,[4],73.3
same,Ratio IC50,[5],32.4
same,IC50,[6],94.8 nM
COCCN1CCC(c2cc3c(-c4cnn(CC5CC5)c4)c(Cl)cnc3[nH]2)CC1,Ratio IC50,[4],146
same,Ratio IC50,[5],22.1
same,IC50,[6],63.8 nM
Clc1cnc2[nH]c(C3CCNCC3)cc2c1-c1cnn(CC2CC2)c1,Ratio IC50,[4],11.5
same,Ratio IC50,[5],14.5
same,IC50,[6],14.7 nM
COc1cc(F)ccc1-c1cc(Nc2cc(CS(C)(=N)=O)ccn2)ncc1F (configuration not stated) [ENITOCICLIB],IC50,[1],250 nM
same,IC50,[2],231 nM
same,IC50,[6],92.4 nM
same,Vd,"[8]; mouse, iv, 2 mg/kg",1.27 L/kg
same,t1/2,"[10]; mouse, iv, 2 mg/kg",26.4 min
same,AUC,"[11]; mouse, iv, 2 mg/kg",2686 nM·h
same,inhibition in vivo at 10 mg/kg,[12],65%
same,Activity,[13],Non-toxic
